Assay results reported in ChEMBL document CHEMBL1131556, “The discovery of orally available thrombin inhibitors: studies towards the optimisation of CGH1668” (Bioorg Med Chem Lett, 1998).
pKi: −log10 of the molar value.

What was measured:
[1] = Activated partial thromboplastin time (APTT) was determined by the influence on doubling of a human clotting time assay; type: functional
[2] = biological target: Prothrombin (Homo sapiens, UniProt P00734); test: In vitro binding affinity for human thrombin.

Compound	pKi [2]	Activity [1] [µM]
O=C([C@H](Cc1ccc(F)cc1)NS(=O)(=O)c1cnccc1N[C@H](CO)Cc1ccccc1)N1CCC(CCF)CC1	7.19	11.7
CCC1CCN(C(=O)[C@H](Cc2ccc(N)cc2)NS(=O)(=O)c2cnccc2N[C@H](CO)Cc2ccccc2)CC1	6.96	5.5
COc1ccc(C[C@@H](CO)Nc2ccncc2S(=O)(=O)N[C@@H](Cc2ccc(N)cc2)C(=O)N2CCC(CCF)CC2)cc1OC	7.31	2.5
Nc1ccc(C[C@H](NS(=O)(=O)c2cnccc2N[C@H](COCCO)Cc2ccccc2)C(=O)N2CCC(CCF)CC2)cc1	7.31	2.5
COc1ccc(C[C@@H](C)Nc2ccncc2S(=O)(=O)N[C@@H](Cc2ccc(N)cc2)C(=O)N2CCC(CCF)CC2)cc1	7.82	9
CCCNC[C@H](Cc1ccccc1)Nc1ccncc1S(=O)(=O)N[C@@H](Cc1ccc(N)cc1)C(=O)N1CCC(CCF)CC1	7.33	3.3
Nc1ccc(C[C@H](NS(=O)(=O)c2cnccc2N[C@H](CO)Cc2ccccc2)C(=O)N2CCC(CCO)CC2)cc1	6.20	7.4
CNC[C@H](CC1CCCCC1)Nc1ccncc1S(=O)(=O)N[C@@H](Cc1ccc(N)cc1)C(=O)N1CCC(CCF)CC1	7.48	2.8
COCCN(CCOC)C[C@H](Cc1ccccc1)Nc1ccncc1S(=O)(=O)N[C@@H](Cc1ccc(N)cc1)C(=O)N1CCC(CCF)CC1	7.72	3.7
Nc1ccc(C[C@H](NS(=O)(=O)c2cnccc2N[C@H](CNCCO)Cc2ccccc2)C(=O)N2CCC(CCF)CC2)cc1	7.14	2
CNc1ccc(C[C@H](NS(=O)(=O)c2cnccc2N[C@H](CO)Cc2ccccc2)C(=O)N2CCC(CCF)CC2)cc1	7.92	4.1
O=C([C@H](Cc1ccccc1)NS(=O)(=O)c1cnccc1N[C@H](CO)Cc1ccccc1)N1CCC(CCF)CC1	7.00	11.5
Nc1ccc(C[C@H](NS(=O)(=O)c2cnccc2N[C@H](CO)CC2CCCCC2)C(=O)N2CCC(CCF)CC2)cc1	7.74	2.6
C[C@H](Cc1ccccc1)Nc1ccncc1S(=O)(=O)N[C@@H](Cc1ccc(N)cc1)C(=O)N1CCC(CCF)CC1	7.74	7.1
CCCCNC[C@H](Cc1ccccc1)Nc1ccncc1S(=O)(=O)N[C@@H](Cc1ccc(N)cc1)C(=O)N1CCC(CCF)CC1	7.37	5.1
CCN(CC)C[C@H](Cc1ccccc1)Nc1ccncc1S(=O)(=O)N[C@@H](Cc1ccc(N)cc1)C(=O)N1CCC(CCF)CC1	7.35	3.56
O=C([C@H](Cc1ccc(O)cc1)NS(=O)(=O)c1cnccc1N[C@H](CO)Cc1ccccc1)N1CCC(CCF)CC1	7.39	1.91
COc1ccc(C[C@H](NS(=O)(=O)c2cnccc2N[C@H](CO)Cc2ccccc2)C(=O)N2CCC(CCF)CC2)cc1	7.44	8.1
COc1ccc(C[C@@H](CO)Nc2ccncc2S(=O)(=O)N[C@@H](Cc2ccc(N)cc2)C(=O)N2CCC(CCF)CC2)cc1	7.72	2.9
Nc1ccc(C[C@H](NS(=O)(=O)c2cnccc2N[C@H](CO)Cc2ccccc2)C(=O)N2CCC(CCCl)CC2)cc1	7.57	4.4

The next lines start with results.

pKi [2]	Compound	Activity [1] [µM]
7.72	Nc1ccc(C[C@H](NS(=O)(=O)c2cnccc2N[C@@H](Cc2ccccc2)CN2CCC(O)CC2)C(=O)N2CCC(CCF)CC2)cc1	1.73
7.62	CC(=O)N1CCN(C[C@H](Cc2ccccc2)Nc2ccncc2S(=O)(=O)N[C@@H](Cc2ccc(N)cc2)C(=O)N2CCC(CCF)CC2)CC1	2.4
7.60	Nc1ccc(C[C@H](NS(=O)(=O)c2cnccc2N[C@@H](Cc2ccccc2)CN2CCCCC2)C(=O)N2CCC(CCF)CC2)cc1	6.1
7.00	CCNC[C@H](Cc1ccccc1)Nc1ccncc1S(=O)(=O)N[C@@H](Cc1ccc(N)cc1)C(=O)N1CCC(CCF)CC1	3.2
7.66	Nc1ccc(C[C@H](NS(=O)(=O)c2cnccc2N[C@@H](Cc2ccccc2)CN2CCOCC2)C(=O)N2CCC(CCF)CC2)cc1	2.9
7.46	CNC[C@H](Cc1ccccc1)Nc1ccncc1S(=O)(=O)N[C@@H](Cc1ccc(N)cc1)C(=O)N1CCC(CCF)CC1	2.4
7.62	CN(C)C[C@H](Cc1ccccc1)Nc1ccncc1S(=O)(=O)N[C@@H](Cc1ccc(N)cc1)C(=O)N1CCC(CCF)CC1	3.4
7.05	Nc1ccc(C[C@H](NS(=O)(=O)c2cnccc2N[C@@H](Cc2ccccc2)CN2CCNC(=O)C2)C(=O)N2CCC(CCF)CC2)cc1	2.43
7.32	Nc1ccc(C[C@H](NS(=O)(=O)c2cnccc2N[C@@H](Cc2ccccc2)CN2CCCC2)C(=O)N2CCC(CCF)CC2)cc1	3.4
7.41	Nc1ccc(C[C@H](NS(=O)(=O)c2cnccc2N[C@H](CO)Cc2ccccc2)C(=O)N2CCC(CCF)CC2)cc1	2.5
